# Test results published in publication PMC7725003, “Systematically Studying the Optimal Amino Acid Distribution Patterns of the Amphiphilic Structure by Using the Ultrashort Amphiphiles” (Frontiers in Microbiology, 2020).
# Where no end group is shown, it is not given here.
# How the values were obtained:
# [1] = system: Gram-negative bacteria; conditions: for GM, Gram-negative bacteria: geometric mean of MICs (Table 3); for TI, Gram-negative bacteria: therapeutic index TI = MHC/GM MIC
# Procedure: (§1) The antimicrobial activity of AMPs is the most decisive index for evaluating the clinical application of antimicrobial drugs.
# (§2) The antimicrobial activities of the peptides were measured using a method adapted from the National Committee for Clinical Laboratory Standards (NCCLS) with some modifications ([Chou et al., 2016]). The specific procedure for these assays has been previously described. In brief, the bacterial cells were grown to a mid-logarithmic phase and diluted in MHB to an ultimate concentration of 0.5–1 × 10^6 CFU mL^–1. Subsequently, the peptides were consecutively diluted in a 0.2% BSA solution and then added to a bacterial solution in a 96-well plate at identical volumes. After incubation for 24 h at 37°C, the MICs were determined to be the lowest peptide concentration that inhibited 95% of the bacterial growth by monitoring the absorbance at 492 nm using a microplate reader. Subsequently, 50 μL of each incubation mixture was further transferred to agar plates and incubated overnight. […] Every assay was reproduced more than 3 times.
# [2] = system: Gram-positive bacteria; conditions: for GM, Gram-positive bacteria: geometric mean of MICs (Table 3); for TI, Gram-positive bacteria: therapeutic index TI = MHC/GM MIC
# Procedure: as §1, §2
# [3] = system: all of the tested bacterial strains; assay: Geometric mean of MICs, all tested bacterial strains; assay type: cell-based; conditions: for GM, All: geometric mean of MICs across all tested strains; for TI, All: therapeutic index TI = MHC/GM MIC
# Excerpt: The antimicrobial activity of AMPs is the most decisive index for evaluating the clinical application of antimicrobial drugs. Many antimicrobial agents inhibit bacterial growth rather than kill the bacteria quickly, and long-term infections are pathogens that are not completely killed, which results in bacterial severe drug resistance. […] The geometric mean (GM) values of the MICs/MBCs of the two series across all of the tested bacterial strains are represented in Table 3, which depicts the average bacteriostatic/bactericidal level of a peptide.
# (§3) The antimicrobial activities of the peptides were measured using a method adapted from the National Committee for Clinical Laboratory Standards (NCCLS) with some modifications ([Chou et al., 2016]). The specific procedure for these assays has been previously described. In brief, the bacterial cells were grown to a mid-logarithmic phase and diluted in MHB to an ultimate concentration of 0.5–1 × 10^6 CFU mL^–1. Subsequently, the peptides were consecutively diluted in a 0.2% BSA solution and then added to a bacterial solution in a 96-well plate at identical volumes. After incubation for 24 h at 37°C, the MICs were determined to be the lowest peptide concentration that inhibited 95% of the bacterial growth by monitoring the absorbance at 492 nm using a microplate reader. Subsequently, 50 μL of each incubation mixture was further transferred to agar plates and incubated overnight. The minimum bactericidal concentrations (MBCs) were determined as the lowest peptide concentration that killed greater than 99.9% of the bacterial cells. Every assay was reproduced more than 3 times.
# [4] = system: P. aeruginosa 27853; assay type: cell-based, Pseudomonas aeruginosa; conditions: 27853, 24 h
# Procedure: as §3
# [5] = system: S. aureus 25923; assay type: cell-based, Staphylococcus aureus; conditions: 25923, 24 h
# Procedure: as §3
# [6] = system: S. aureus 29213; assay type: cell-based, Staphylococcus aureus; conditions: 29213, 24 h
# Procedure: as §3
# [7] = system: B. subtilis 63501; assay type: cell-based, Bacillus subtilis; conditions: 63501, 24 h
# Procedure: as §3
# [8] = system: E. coli ATCC 25922; assay: Salt sensitivity assay (MIC); assay type: cell-based, Escherichia coli; conditions: for MIC, FeCl3: 4 μM FeCl3; for MIC, NH4Cl: 6 μM NH4Cl; for MIC, ZnCl2: 8 μM ZnCl2; for MIC, MgCl2: 1 mM MgCl2; for MIC, CaCl2: 2 mM CaCl2; for MIC, KCl: 4.5 mM KCl; for MIC, NaCl: 150 mM NaCl; for MIC, Control: no added salt, three independent assays
# Procedure: as §3
# (§4) The salt sensitivities of the peptides were determined. E. coli ATCC 25922 and S. aureus ATCC 29213 were incubated in the presence of various ultimate concentrations of physiological salts (150 mM NaCl, 4.5 mM KCl, 6 μM NH4Cl, 8 μM ZnCl2, 1 mM MgCl2, 2mM CaCl2, and 4 μM FeCl3) according to our previous protocol ([Yang et al., 2019]). These tests were performed under the MICs, and three independent assays were performed.
# [9] = system: S. epidermidis 12228; assay type: cell-based, Staphylococcus epidermidis; conditions: 12228, 24 h
# Procedure: as §3
# [10] = system: S. pullorum 7913; assay type: cell-based, Salmonella pullorum; conditions: 7913, 24 h
# Procedure: as §3
# [11] = system: E. coli 25922; assay type: cell-based, Escherichia coli; conditions: 25922, 24 h
# Procedure: as §3
# [12] = system: E. coli O78; assay type: cell-based, Escherichia coli; conditions: O78, 24 h
# Procedure: as §3
# [13] = system: E. coli UB1005; assay type: cell-based, Escherichia coli; conditions: UB1005, 24 h
# Procedure: as §3
# [14] = system: S. aureus 29213; assay: Salt sensitivity assay (MIC); assay type: cell-based, Staphylococcus aureus; conditions: for MIC, FeCl3: 4 μM FeCl3; for MIC, NH4Cl: 6 μM NH4Cl; for MIC, ZnCl2: 8 μM ZnCl2; for MIC, MgCl2: 1 mM MgCl2; for MIC, CaCl2: 2 mM CaCl2; for MIC, KCl: 4.5 mM KCl; for MIC, NaCl: 150 mM NaCl; for MIC, Control: no added salt, three independent assays
# Procedure: as §3, §4
# [15] = system: Listeria monocytogenes CGMCC 1.1075; assay type: cell-based; conditions: CGMCC 1.1075, 24 h
# Procedure: as §3
# [16] = system: S. typhimurium 14028; assay type: cell-based, Salmonella typhimurium; conditions: 14028, 24 h
# Procedure: as §3
# [17] = system: S. typhimurium 7731; assay type: cell-based, Salmonella typhimurium; conditions: 7731, 24 h
# Procedure: as §3
# [18] = system: E. faecalis 29212; assay type: cell-based, Enterococcus faecalis; conditions: 29212, 24 h
# Procedure: as §3
# [19] = system: MRSA 43300; assay type: cell-based, methicillin-resistant S. aureus; conditions: 43300, 24 h
# Procedure: as §3
substance,measurement,setting,value
RWRWRRWWW-NH2 [W9],"GM, Gram-negative bacteria",[1],4.67 µM
same,"TI, Gram-negative bacteria",[1],54.82
same,"GM, Gram-positive bacteria",[2],2.44 µM
same,"TI, Gram-positive bacteria",[2],104.92
same,"GM, All",[3],3.51 µM
same,"TI, All",[3],72.93
same,MBC,[4],16 µM
same,MIC,[4],8 µM
same,MBC,[5],4 µM
same,MIC,[5],2 µM
same,MBC,[6],4 µM
same,MIC,[6],2 µM
same,MBC,[7],4 µM
same,MIC,[7],2 µM
same,"MIC, FeCl3",[8],4 µM
same,"MIC, NH4Cl",[8],4 µM
same,"MIC, ZnCl2",[8],8 µM
same,"MIC, MgCl2",[8],8 µM
same,"MIC, CaCl2",[8],16 µM
same,"MIC, KCl",[8],8 µM
same,"MIC, NaCl",[8],16 µM
same,"MIC, Control",[8],4 µM
same,MBC,[9],4 µM
same,MIC,[9],2 µM
same,MBC,[10],8 µM
same,MIC,[10],4 µM
same,MBC,[11],8 µM
same,MIC,[11],4 µM
same,MBC,[12],8 µM
same,MIC,[12],4 µM
same,MBC,[13],8 µM
same,MIC,[13],4 µM
same,"MIC, FeCl3",[14],2 µM
same,"MIC, NH4Cl",[14],2 µM
same,"MIC, ZnCl2",[14],2 µM
same,"MIC, MgCl2",[14],2 µM
same,"MIC, CaCl2",[14],4 µM
same,"MIC, KCl",[14],2 µM
same,"MIC, NaCl",[14],2 µM
same,"MIC, Control",[14],2 µM
same,MBC,[15],8 µM
same,MIC,[15],4 µM
same,MBC,[16],16 µM
same,MIC,[16],8 µM
same,MBC,[17],8 µM
same,MIC,[17],4 µM
same,MBC,[18],8 µM
same,MIC,[18],4 µM
same,MBC,[19],4 µM
same,MIC,[19],2 µM
WRRRWWWWR-NH2 [W6],"GM, Gram-negative bacteria",[1],5.04 µM
same,"TI, Gram-negative bacteria",[1],50.79
same,"GM, Gram-positive bacteria",[2],2.21 µM
same,"TI, Gram-positive bacteria",[2],115.84
same,"GM, All",[3],3.51 µM
same,"TI, All",[3],72.93
same,MBC,[4],16 µM
same,MIC,[4],8 µM
same,MBC,[5],4 µM
same,MIC,[5],2 µM
same,MBC,[6],4 µM
same,MIC,[6],2 µM
same,MBC,[7],2 µM
same,MIC,[7],1 µM
same,"MIC, FeCl3",[8],4 µM
same,"MIC, NH4Cl",[8],2 µM
same,"MIC, ZnCl2",[8],4 µM
same,"MIC, MgCl2",[8],8 µM
same,"MIC, CaCl2",[8],16 µM
same,"MIC, KCl",[8],8 µM
same,"MIC, NaCl",[8],16 µM
same,"MIC, Control",[8],4 µM
same,MBC,[9],8 µM
same,MIC,[9],4 µM
same,MBC,[10],16 µM
same,MIC,[10],8 µM
same,MBC,[11],8 µM
same,MIC,[11],4 µM
same,MBC,[12],8 µM
same,MIC,[12],4 µM
same,MBC,[13],8 µM
same,MIC,[13],4 µM
same,"MIC, FeCl3",[14],2 µM
same,"MIC, NH4Cl",[14],2 µM
same,"MIC, ZnCl2",[14],2 µM
same,"MIC, MgCl2",[14],4 µM
same,"MIC, CaCl2",[14],4 µM
same,"MIC, KCl",[14],2 µM
same,"MIC, NaCl",[14],4 µM
same,"MIC, Control",[14],2 µM
same,MBC,[15],4 µM
same,MIC,[15],2 µM
same,MBC,[16],16 µM
same,MIC,[16],8 µM
same,MBC,[17],16 µM
same,MIC,[17],8 µM
same,MBC,[18],8 µM
same,MIC,[18],4 µM
same,MBC,[19],4 µM
same,MIC,[19],2 µM
RWWWWRRWR-NH2 [W10],"GM, Gram-negative bacteria",[1],5.44 µM
same,"TI, Gram-negative bacteria",[1],47.06
same,"GM, Gram-positive bacteria",[2],2.21 µM
same,"TI, Gram-positive bacteria",[2],115.84
same,"GM, All",[3],3.67 µM
same,"TI, All",[3],69.75
same,MBC,[4],8 µM
same,MIC,[4],4 µM
same,MBC,[5],4 µM
same,MIC,[5],2 µM
same,MBC,[6],4 µM
same,MIC,[6],2 µM
same,MBC,[7],4 µM
same,MIC,[7],2 µM
same,"MIC, FeCl3",[8],4 µM
same,"MIC, NH4Cl",[8],8 µM
same,"MIC, ZnCl2",[8],4 µM
same,"MIC, MgCl2",[8],16 µM
same,"MIC, CaCl2",[8],16 µM
same,"MIC, KCl",[8],16 µM
same,"MIC, NaCl",[8],32 µM
same,"MIC, Control",[8],8 µM
same,MBC,[9],4 µM
same,MIC,[9],2 µM
same,MBC,[10],32 µM
same,MIC,[10],16 µM
same,MBC,[11],16 µM
same,MIC,[11],8 µM
same,MBC,[12],8 µM
same,MIC,[12],4 µM
same,MBC,[13],16 µM
same,MIC,[13],8 µM
same,"MIC, FeCl3",[14],1 µM
same,"MIC, NH4Cl",[14],1 µM
same,"MIC, ZnCl2",[14],1 µM
same,"MIC, MgCl2",[14],2 µM
same,"MIC, CaCl2",[14],2 µM
same,"MIC, KCl",[14],2 µM
same,"MIC, NaCl",[14],2 µM
same,"MIC, Control",[14],2 µM
same,MBC,[15],4 µM
same,MIC,[15],2 µM
same,MBC,[16],16 µM
same,MIC,[16],8 µM
same,MBC,[17],8 µM
same,MIC,[17],4 µM
same,MBC,[18],8 µM
same,MIC,[18],4 µM
same,MBC,[19],4 µM
same,MIC,[19],2 µM
